Where two headings read alike, the source gives them in different places.

The values below come from US11339130B1 (Blade Therapeutics, Inc., priority 2016, dated 2022).

Type in all cases: biochemical
One assay has as its target T1, Human Calpain 1/NS1 (Homo sapiens, UniProt P07384).
T1 sequence (P07384 1-714): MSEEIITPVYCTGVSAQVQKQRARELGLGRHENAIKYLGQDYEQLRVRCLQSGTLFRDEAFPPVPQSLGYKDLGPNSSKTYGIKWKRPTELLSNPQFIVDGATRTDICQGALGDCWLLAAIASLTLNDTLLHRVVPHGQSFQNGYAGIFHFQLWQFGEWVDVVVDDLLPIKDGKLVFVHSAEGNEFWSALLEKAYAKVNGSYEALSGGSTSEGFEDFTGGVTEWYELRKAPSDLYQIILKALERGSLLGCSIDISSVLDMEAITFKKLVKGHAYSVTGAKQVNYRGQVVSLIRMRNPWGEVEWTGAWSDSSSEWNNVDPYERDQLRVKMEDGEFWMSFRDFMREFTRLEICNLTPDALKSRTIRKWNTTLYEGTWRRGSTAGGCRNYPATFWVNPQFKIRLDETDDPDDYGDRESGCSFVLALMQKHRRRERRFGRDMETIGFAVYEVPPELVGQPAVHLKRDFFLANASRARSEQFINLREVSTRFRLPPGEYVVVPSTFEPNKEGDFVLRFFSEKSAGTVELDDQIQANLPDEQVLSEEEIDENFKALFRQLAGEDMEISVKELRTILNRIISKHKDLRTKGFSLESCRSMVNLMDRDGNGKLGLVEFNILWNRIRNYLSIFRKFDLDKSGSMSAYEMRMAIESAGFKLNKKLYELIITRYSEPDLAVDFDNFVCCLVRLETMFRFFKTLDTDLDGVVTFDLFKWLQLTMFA
T1 sequence (P04632 1-268 partner): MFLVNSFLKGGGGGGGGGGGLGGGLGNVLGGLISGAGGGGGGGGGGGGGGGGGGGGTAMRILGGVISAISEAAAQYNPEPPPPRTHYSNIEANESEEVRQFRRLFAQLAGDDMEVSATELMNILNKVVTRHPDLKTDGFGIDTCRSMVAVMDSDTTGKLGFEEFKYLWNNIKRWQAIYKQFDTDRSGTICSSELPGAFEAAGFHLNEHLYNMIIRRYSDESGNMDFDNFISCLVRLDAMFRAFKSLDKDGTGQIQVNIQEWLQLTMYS
Nature of the assay: Calpain inhibition continuous fluorescence (FRET) assay, Human Calpain 1/NS1. The conditions noted are these: read-out: Human Calpain 1/NS1 IC50. Put shortly: (§1)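 Calpain activity is measured kinetically with a quenched FRET peptide in 50 mM Tris pH 7.5, 100 mM NaCl, 1 mM DTT, with CaCl2 triggering activation. Rates over 1-5 min are plotted against log inhibitor to obtain IC50 by 4-parameter logistic fitting.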

Another assay addresses T2, Human Calpain 2/NS1 (Homo sapiens, UniProt P17655).
T2 sequence (P17655 1-700): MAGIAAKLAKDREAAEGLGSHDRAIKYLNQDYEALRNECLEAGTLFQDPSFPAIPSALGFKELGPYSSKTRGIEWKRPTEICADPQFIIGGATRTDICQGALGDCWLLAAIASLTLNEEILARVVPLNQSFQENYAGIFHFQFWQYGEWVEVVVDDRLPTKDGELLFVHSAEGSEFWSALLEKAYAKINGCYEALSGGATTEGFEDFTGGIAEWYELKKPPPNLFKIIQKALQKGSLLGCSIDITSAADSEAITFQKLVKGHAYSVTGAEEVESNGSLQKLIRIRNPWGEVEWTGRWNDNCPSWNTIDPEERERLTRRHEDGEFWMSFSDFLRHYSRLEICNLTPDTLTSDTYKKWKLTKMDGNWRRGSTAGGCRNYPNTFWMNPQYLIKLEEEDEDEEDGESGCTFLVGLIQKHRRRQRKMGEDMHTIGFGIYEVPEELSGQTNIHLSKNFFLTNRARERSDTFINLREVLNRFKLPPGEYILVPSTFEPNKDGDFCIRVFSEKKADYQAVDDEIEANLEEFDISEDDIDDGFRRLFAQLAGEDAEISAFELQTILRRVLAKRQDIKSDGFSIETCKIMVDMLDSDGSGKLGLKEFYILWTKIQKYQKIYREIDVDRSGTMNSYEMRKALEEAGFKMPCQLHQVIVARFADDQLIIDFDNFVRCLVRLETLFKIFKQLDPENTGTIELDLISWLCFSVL
T2 sequence (P04632 1-268 partner): T1 sequence (P04632 1-268 partner)
Nature of the assay: Calpain inhibition continuous fluorescence (FRET) assay, Human Calpain 2/NS1. The following applies: read-out: Human Calpain 2/NS1 IC50. Put shortly: as §1

The target in the next assay is T3, Human Calpain 9/NS1 (Homo sapiens, UniProt O14815).
T3 sequence (O14815 1-690): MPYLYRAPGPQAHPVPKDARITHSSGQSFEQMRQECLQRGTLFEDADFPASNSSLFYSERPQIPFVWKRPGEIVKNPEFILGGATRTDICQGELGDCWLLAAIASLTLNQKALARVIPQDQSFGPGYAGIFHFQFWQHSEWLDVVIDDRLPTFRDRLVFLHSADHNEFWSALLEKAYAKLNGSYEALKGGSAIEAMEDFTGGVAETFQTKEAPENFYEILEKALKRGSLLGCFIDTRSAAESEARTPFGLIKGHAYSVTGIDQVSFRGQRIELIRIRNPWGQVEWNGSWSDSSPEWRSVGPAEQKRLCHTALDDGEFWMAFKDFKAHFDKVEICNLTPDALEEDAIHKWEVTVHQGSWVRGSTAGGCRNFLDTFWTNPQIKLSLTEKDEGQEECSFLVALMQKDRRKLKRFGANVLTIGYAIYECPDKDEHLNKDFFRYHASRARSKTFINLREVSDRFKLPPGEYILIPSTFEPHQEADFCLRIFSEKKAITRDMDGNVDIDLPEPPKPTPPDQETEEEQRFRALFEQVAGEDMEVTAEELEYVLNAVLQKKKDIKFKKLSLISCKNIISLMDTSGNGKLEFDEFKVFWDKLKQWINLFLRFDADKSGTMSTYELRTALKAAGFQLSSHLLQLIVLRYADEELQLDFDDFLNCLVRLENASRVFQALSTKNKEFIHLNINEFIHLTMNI
T3 sequence (P04632 1-268 partner): T1 sequence (P04632 1-268 partner)
Nature of the assay: Calpain inhibition continuous fluorescence (FRET) assay, Human Calpain 9/NS1. The conditions noted are these: read-out: Human Calpain 9/NS1 IC50. Put shortly: as §1

Turning to “N-(4-amino-3,4-dioxo-1-phenylbutan-2-yl)-3-(isoquinolin-3-yl)-1-methyl-1H-pyrazole-4-carboxamide [Compound 629]”, the IC50 at Human Calpain 1/NS1, on Human Calpain 2/NS1 and on Human Calpain 9/NS1 was below 3 µM in each case.

For `NC(=O)C(=O)[C@H](Cc1ccccc1)NC(=O)c1scnc1-c1ccccc1` [Compound 18, (S)—N-(4-amino-3,4-dioxo-1-phenylbutan-2-yl)-4-phenyl thiazole-5-carboxamide], the IC50 on Human Calpain 1/NS1 (Column A), at Human Calpain 2/NS1 (Column B) and at Human Calpain 9/NS1 (Column C) was below 3 µM in each case.

In the case of `Cc1ccc(-c2c(C(=O)N[C@@H](Cc3ccccc3)C(=O)C(N)=O)cnn2C)cc1` [Compound 167, (S)—N-(4-amino-3,4-dioxo-1-phenylbutan-2-yl)-1-methyl-5-(p-tolyl)-1H-pyrazole-4-carboxamide], the IC50 at Human Calpain 1/NS1 (Column A), on Human Calpain 2/NS1 (Column B) and on Human Calpain 9/NS1 (Column C) was below 3 µM in each case.

For `Cc1cc(C(=O)N[C@H](C=O)Cc2ccccc2)n(-c2ccccc2)n1` [Compound 8, (S)-3-methyl-N-(1-oxo-3-phenylpropan-2-yl)-1-phenyl-1H-pyrazole-5-Carboxamide], the IC50 on Human Calpain 1/NS1 (Column A), on Human Calpain 2/NS1 (Column B) and on Human Calpain 9/NS1 (Column C) was below 3 µM each time.

For `O=C[C@H](Cc1ccccc1)NC(=O)c1cncn1-c1ccccn1` [Compound 31, (S)—N-(1-oxo-3-phenylpropan-2-yl)-1-(pyridin-2-yl)-1H-imidazole-5-carboxamide], the IC50 on Human Calpain 1/NS1 (Column A), on Human Calpain 2/NS1 (Column B) and at Human Calpain 9/NS1 (Column C) was below 3 µM throughout.

On to `Cc1cc(C(=O)NC(Cc2ccccc2)C(=O)C(N)=O)c(-c2nc3ccccc3[nH]2)s1` (stereo not drawn) [Compound 429, N-(4-amino-3,4-dioxo-1-phenylbutan-2-yl)-2-(1H-benzo[d]imidazol-2-yl)-5-methylthiophene-3-carboxamide], for which the IC50 at Human Calpain 1/NS1, on Human Calpain 2/NS1 and at Human Calpain 9/NS1 was below 3 µM in each case.

As for `NC(=O)C(=O)[C@H](Cc1ccccc1)NC(=O)c1cc2ccccc2n1-c1ccccc1` [Compound 307, (S)—N-(4-amino-3,4-dioxo-1-phenylbutan-2-yl)-1-phenyl-1H-indole-2-carboxamide], the IC50 on Human Calpain 1/NS1, on Human Calpain 2/NS1 and on Human Calpain 9/NS1 was below 3 µM in each case.

For `Cn1nnc(C(=O)N[C@@H](Cc2ccccc2)C(=O)C(N)=O)c1-c1ccccc1` [Compound 260, (S)—N-(4-amino-3,4-dioxo-1-phenylbutan-2-yl)-1-methyl-5-phenyl-1H-1,2,3-triazole-4-carboxamide], the IC50 on Human Calpain 1/NS1 (Column A), at Human Calpain 2/NS1 (Column B) and at Human Calpain 9/NS1 (Column C) was below 3 µM each time.

Regarding `Cn1cc(C(=O)NC(Cc2ccccc2)C(=O)C(N)=O)c(C2CCCN(C(=O)OC(C)(C)C)C2)n1` (stereo not drawn) [Compound 624, Tert-Butyl 3-(4-((4-amino-3,4-dioxo-1-phenylbutan-2-yl)carbamoyl)-1-methyl-1H-pyrazol-3-yl)piperidine-1-carboxylate], the IC50 at Human Calpain 1/NS1, on Human Calpain 2/NS1 and at Human Calpain 9/NS1 was below 3 µM each time.

In the case of `Cc1nc(-c2ccccc2)c(C(=O)NC(Cc2cc(Cl)cc(Cl)c2)C(=O)C(N)=O)o1` (stereo not drawn) [Compound 390, N-(4-amino-1-(3,5-dichlorophenyl)-3,4-dioxobutan-2-yl)-2-methyl-4-phenyloxazole-5-carboxamide], the IC50 at Human Calpain 1/NS1, on Human Calpain 2/NS1 and on Human Calpain 9/NS1 was below 3 µM in each case.

In the case of `Cc1noc(-c2ccccc2)c1C(=O)N[C@@H](Cc1ccccc1)C(=O)C(=O)NCc1ccc2c(c1)OCO2` [Compound 225, (S)—N-(4-((benzo[d][1,3]dioxol-5-ylmethyl)amino)-3,4-dioxo-1-phenylbutan-2-yl)-3-methyl-5-phenylisoxazole-4-carboxamide], the IC50 is below 3 µM on Human Calpain 1/NS1 (Column A), above 10 µM on Human Calpain 2/NS1 (Column B) and above 10 µM on Human Calpain 9/NS1 (Column C).

Regarding `Cc1noc(-c2ccccc2)c1C(=O)N[C@@H](CC(C)C)C(=O)C(N)=O` [Compound 35, (S)—N-(1-amino-5-methyl-1,2-dioxohexan-3-yl)-3-methyl-5-phenylisoxazole-4-carboxamide], the IC50 on Human Calpain 1/NS1 (Column A), on Human Calpain 2/NS1 (Column B) and on Human Calpain 9/NS1 (Column C) was below 3 µM each time.

Regarding `Cn1cc(C(=O)NC(Cc2ccccc2)C(=O)C(N)=O)c(C2CC2)n1` (stereo not drawn) [Compound 616, N-(4-amino-3,4-dioxo-1-phenylbutan-2-yl)-3-cyclopropyl-1-methyl-1H-pyrazole-4-carboxamide], the IC50 is 3 to 10 µM at Human Calpain 1/NS1, below 3 µM on Human Calpain 2/NS1 and 3 to 10 µM at Human Calpain 9/NS1.

As for `Cc1cc(C(=O)N[C@@H](Cc2ccccc2)C(=O)C(N)=O)nn1-c1nc2ccccc2o1` [Compound 256, (S)—N-(4-amino-3,4-dioxo-1-phenylbutan-2-yl)-1-(benzo[d]oxazol-2-yl)-5-methyl-1H-pyrazole-3-carboxamide], the IC50 is above 10 µM at Human Calpain 1/NS1 (Column A), above 10 µM on Human Calpain 2/NS1 (Column B) and below 3 µM on Human Calpain 9/NS1 (Column C).

As to `Cn1nc(-c2ccccc2)c(C(=O)N[C@@H](Cc2ccccc2)C(=O)C(N)=O)c1Cl` [Compound 94, (S)—N-(4-amino-3,4-dioxo-1-phenylbutan-2-yl)-5-chloro-1-methyl-3-phenyl-1H-pyrazole-4-carboxamide], the IC50 at Human Calpain 1/NS1 (Column A), at Human Calpain 2/NS1 (Column B) and at Human Calpain 9/NS1 (Column C) was below 3 µM in each case.

For the compound `COc1cccc(-c2nn(C)cc2C(=O)NC(Cc2ccccc2)C(=O)C(N)=O)n1` (stereo not drawn) [Compound 487, N-(4-amino-3,4-dioxo-1-phenylbutan-2-yl)-3-(6-methoxypyridin-2-yl)-1-methyl-1H-pyrazole-4-carboxamide], the figures for the IC50 at Human Calpain 1/NS1, on Human Calpain 2/NS1 and at Human Calpain 9/NS1 were 3 to 10 µM, below 3 µM and below 3 µM, respectively.

For `Cc1cc(C(=O)N[C@@H](Cc2ccccc2)C(=O)C(N)=O)n(-c2ncccn2)n1` (single isomer, unassigned) [Compound 36], the IC50 on Human Calpain 1/NS1 (Column A) was above 10 µM; at Human Calpain 2/NS1 (Column B), 3 to 10 µM; at Human Calpain 9/NS1 (Column C) it was 3 to 10 µM.
